Where a name gives a salt, the structure may show the parent alone.
assay: in vitro; type: in vitro ADME, human; settings: Table 4; human serum, 37° C.
From the text: Table 4 lists the serum half-lives for several model compounds and two representative pharmaceutical agent-chemical modifier complexes using an in vitro assay system described in the Experimental section below. Of course, the serum half-lives will vary in vivo depending upon the age and health condition of the patient. Each complex comprises a model compound or a pharmaceutical agent, a spacer group, and a chemical modifier. Many of the model compounds utilize 4-nitrophenyl(ethanol, propanol, or cyclohexanol) or 4-nitrophenylethylamine as the "model" pharmaceutical agent. A more complete listing of serum half-lives may be found in the Experimental section below.
General procedure for serum hydrolysis of pharmaceutical agent-modifier complexes
Stock solutions (6 mM) of the pharmaceutical agent-modifier complexes were prepared in ethanol (by vortexing, sonication or warming at 37° C. if necessary). If required for solubility, a drop of dimethylsulfoxide, dimethylformamide or methanol may be added. (Acetonitrile cannot be used because it deactivates the serum enzymes.)
HPLC separation methods were established for each study by dilution of the above stock solution (6 μl) in acetonitrile (1 ml) to give a 36 μM solution. Samples (10 μl) were injected onto a Nucleosil 5C8 (250×4 mmID) and guard column (11×4 mm ID) and eluted with a mobile phase of approximately 65% HPLC grade water and 35% of a solution of 0.1% trifluoroacetic acid in acetonitrile, the exact proportions being adjusted in each case to give optimum separation and run times.
Freshly defrosted human serum (3 ml, Sigma) was warmed at 37° C. for five minutes and then 60 μl of the agent-modifier complex stock solution was added with vortexing. […] The aliquots were added to 800 μl of 2% zinc sulfate solution in a 1.5 ml disposable microcentrifuge tube, vortexed immediately and centrifuged at 14,000 RPM for 3 minutes. The supernatants (10 μl) were then injected onto the HPLC and peak areas were used to determine the % remaining. Serum blanks were prepared similarly by addition of serum to the zinc sulfate solution followed by centrifugation, and time=0 samples were also prepared by adding serum to the zinc sulfate solution followed by addition of the complex and separation by centrifugation. The time=0 samples, as well as the original stock solutions, were also used to study the stability of the complex in the absence of enzyme. Half-lives were calculated using the equation
by plotting time (x) vs. ln % remaining (y) to obtain the slope (m) and the y intercept (b).

Row | SMILES | In vitro Half-Life
1 | CC(=O)OC(CC(=O)OCCCCCCCCCC(=O)OCC(=O)OC1=CC2=CC[C@H]3[C@@H]4CC[C@H](C(C)=O)[C@@]4(C)CC[C@@H]3[C@@]2(C)CC1)C[N+](C)(C)C (stereo partly drawn) [Progesterone 3-{2-O-[10-O-(O-acetylcarnitinyl)decanoyl]glycolic acid} enol ester] | 28.9 min

same assay, conditions: Table 5; human serum, 37° C.

Row | SMILES | Serum Half-life
2 | CC(=O)OC(CC(=O)OCCCCCCCCCC(=O)OCC(=O)OC1=CC2=CC[C@H]3[C@@H]4CC[C@H](C(C)=O)[C@@]4(C)CC[C@@H]3[C@@]2(C)CC1)C[N+](C)(C)C (stereo partly drawn) [Progesterone 3-{2-O-[10-O-(O-acetylcarnitinyl)decanoyl]glycolic acid} enol ester] | 28.9 min
3 | CC1OC(OC2C(C)OC(OC3C(C)OC(OC4CCC5(C)C(CCC6C5CC(OC(=O)OCOC(=O)CCCCC[N+](C)(C)C)C5(C)C(C7=CC(=O)OC7)CCC65O)C4)CC3OC(=O)OCOC(=O)CCCCC[N+](C)(C)C)CC2OC(=O)OCOC(=O)CCCCC[N+](C)(C)C)CC2OC(=O)OC12 (stereo not drawn) [digoxin-3',3",12-tris-(6-trimethylaminohexanoyloxymethyl carbonate)-3'",4""-cyclic carbonate, tribromide salt] | 840 min

same assay, conditions: human, serum

Row | SMILES | Serum Half-life
4 | C#CC[N+](C)(C(C)Cc1ccccc1)C(C)OC(=O)CCC.[Br-] (stereo not drawn) [deprenyl-N-butyroyloxy-1-ethyl, bromide salt] | 28 min

same assay, conditions: human, serum, Table 5; human serum, 37° C.; read-out: Serum Half-life (converted)

Row | SMILES | half-life
5 | COc1ccc2c(c1)c(CC(=O)O[C@H](CC(=O)O)C[N+](C)(C)C)c(C)n2C(=O)c1ccc(Cl)cc1 [O-indomethacinyl-(L-carnitine hydrochloride)] | > 30 min
6 | CC(=O)OC1CC(C(=O)OCCc2ccc([N+](=O)[O-])cc2)[N+](C)(C)C1 (stereo not drawn) [betonicine-O-acetate 4-nitrophenethyl ester] | 6 min
7 | C#CC[N+](C)(COC(C)=O)C(C)Cc1ccccc1 (stereo not drawn) [deprenyl-N-acetoxymethyl, bromide salt] | 4.2 min
8 | C#CC[N+](C)(COC(=O)c1ccccc1)C(C)Cc1ccccc1 (stereo not drawn) [deprenyl-N-benzoyloxymethyl, iodide salt] | 5 min
9 | C#CC[N+](C)(COC(=O)CCC)C(C)Cc1ccccc1 (stereo not drawn) [deprenyl-N-butyroyloxymethyl, iodide salt] | 0.283 min
10 | C#CC[N+](C)(COC(=O)OCC)C(C)Cc1ccccc1 (stereo not drawn) [deprenyl-N-ethoxycarbonyloxymethyl, iodide salt] | 1.18 min
11 | C#CC[N+](C)(COC(=O)OCCCCCCCC)C(C)Cc1ccccc1 (stereo not drawn) [deprenyl-N-octyloxycarbonyloxymethyl, iodide salt] | 0.433 min
12 | C#CC[N+](C)(COC(=O)C(C)(C)C)C(C)Cc1ccccc1 (stereo not drawn) [deprenyl-N-pivaloyloxymethyl, iodide salt] | 20 min
13 | C[C@]12CC[C@H](OC(=O)CCCCCN3CCOCC3)C[C@H]1CC[C@@H]1[C@@H]2CC[C@]2(C)[C@@H](C3=CC(=O)OC3)CC[C@]12O [digitoxigenin-3-(6-morpholino-hexanoate)] | 14900 min
14 | CC(=O)O[C@H](CC(=O)O[C@H]1CC[C@@]2(C)[C@H](CC[C@@H]3[C@@H]2CC[C@]2(C)[C@@H](C4=CC(=O)OC4)CC[C@]32O)C1)C[N+](C)(C)C [digitoxigenin-3-(O-acetyl-L-carnitine) ester, chloride salt] | 324 min
15 | C[C@]12CC[C@H](OC(=O)OCC[N+](C)(C)C)C[C@H]1CC[C@@H]1[C@@H]2CC[C@]2(C)[C@@H](C3=CC(=O)OC3)CC[C@]12O [digitoxigenin-3-(O-choline chloride carbonate) ester] | 13.6 min
16 | CCCCCCCCCCCCCCCC(=O)O[C@H](CC(=O)O[C@H]1CC[C@@]2(C)[C@H](CC[C@@H]3[C@@H]2CC[C@]2(C)[C@@H](C4=CC(=O)OC4)CC[C@]32O)C1)C[N+](C)(C)C [digitoxigenin-3-(O-palmityl-L-carnitine) ester, chloride salt] | ~180 min
17 | CC(=O)OC(CC(=O)NCCCCCCOC(=O)O[C@H]1[C@@H](O)C[C@H](O[C@H]2[C@@H](O)C[C@H](O[C@H]3[C@@H](O)C[C@H](O[C@H]4CC[C@@]5(C)[C@H](CC[C@@H]6[C@@H]5CC[C@]5(C)[C@@H](C7=CC(=O)OC7)CC[C@]65O)C4)O[C@@H]3C)O[C@@H]2C)O[C@@H]1C)C[N+](C)(C)C (stereo partly drawn) [digitoxin-4"'-6-[O-(acetylcarnitinamido)hexyl]carbonate ester] | 34.8 min
18 | C[C@H]1O[C@@H](O[C@H]2[C@@H](O)C[C@H](O[C@H]3[C@@H](O)C[C@H](O[C@H]4CC[C@@]5(C)[C@H](CC[C@@H]6[C@@H]5CC[C@]5(C)[C@@H](C7=CC(=O)OC7)CC[C@]65O)C4)O[C@@H]3C)O[C@@H]2C)C[C@H](O)[C@@H]1OC(=O)OCC[N+](C)(C)C [digitoxin-4"'-(choline chloride) carbonate ester] | 5.3 min
19 | C[C@H]1O[C@@H](O[C@H]2[C@@H](O)C[C@H](O[C@H]3[C@@H](O)C[C@H](O[C@H]4CC[C@@]5(C)[C@H](CC[C@@H]6[C@@H]5C[C@@H](OC(=O)OCOC(=O)CCCCC[N+](C)(C)C)[C@]5(C)[C@@H](C7=CC(=O)OC7)CC[C@]65O)C4)O[C@@H]3C)O[C@@H]2C)C[C@@H]2OC(=O)O[C@@H]21 [digoxin 12-(6-trimethylaminohexanoyloxymethyl carbonate)-3"',4"'-cyclic carbonate, bromide salt] | 168 min
20 | CC1OC(OC2CCC3(C)C(CCC4C3CC(O)C3(C)C(C5=CC(=O)OC5)CCC43O)C2)CC(O)C1OC1CC(O)C(OC2CC3OC(=O)OC3C(C)O2)C(C)O1 (stereo not drawn) [digoxin-3'",4'"-cyclic carbonate] | 0.15 min
21 | CC1OC(OC2C(C)OC(OC3C(C)OC(OC4CCC5(C)C(CCC6C5CC(O)C5(C)C(C7=CC(=O)OC7)CCC65O)C4)CC3OC(=O)OCOC(=O)CCCCC[N+](C)(C)C)CC2OC(=O)OCOC(=O)CCCCC[N+](C)(C)C)CC2OC(=O)OC12 (stereo not drawn) [digoxin-3',3"-bis-(6-trimethylaminohexanoyloxymethyl carbonate)-3'",4'"-cyclic carbonate, bromide salt] | 600 min
22 | CC1OC(OC2C(C)OC(OC3C(C)OC(OC4CCC5(C)C(CCC6C5CC(O)C5(C)C(C7=CC(=O)OC7)CCC65O)C4)CC3OC(=O)OCC[N+](C)(C)C)CC2OC(=O)OCC[N+](C)(C)C)CC2OC(=O)OC12 (stereo not drawn) [digoxin-3',3"-bis-(choline carbonate)-3'",4'"-cyclic carbonate, dibromide salt] | 2040 min
23 | C[C@H]1O[C@@H](O[C@H]2[C@@H](O)C[C@H](O[C@H]3[C@@H](O)C[C@H](O[C@H]4CC[C@@]5(C)[C@H](CC[C@@H]6[C@@H]5C[C@@H](O)[C@]5(C)[C@@H](C7=CC(=O)OC7)CC[C@]65O)C4)O[C@@H]3C)O[C@@H]2C)C[C@H](O)[C@@H]1OC(=O)CCCOC(=O)CCC[N+](C)(C)C [digoxin-4"'-4-(4-trimethylaminobutyroyloxy)butyrate, bromide salt] | 420 min
24 | CCCCCCCCCCCCCCCC(=O)OC(CC(=O)NCCCCCCOC(=O)OC1C(O)CC(OC2C(O)CC(OC3C(O)CC(OC4CCC5(C)C(CCC6C5CC(O)C5(C)C(C7=CC(=O)OC7)CCC65O)C4)OC3C)OC2C)OC1C)C[N+](C)(C)C (stereo not drawn) [digoxin-4"'-6-O-palmitoylcarnitinamido)hexyl carbonate, chloride salt] | 21 min
25 | CC1OC(OC2C(O)CC(OC3C(O)CC(OC4CCC5(C)C(CCC6C5CC(O)C5(C)C(C7=CC(=O)OC7)CCC65O)C4)OC3C)OC2C)CC(O)C1OC(=O)OCCCCCCOC(=O)C[N+](C)(C)C (stereo not drawn) [digoxin-4"'-[1-(6-betainoyloxyhexyl)]carbonate, chloride salt] | 21 min

same assay, conditions: human, serum, untitled table of digoxin derivatives (position/substituent); assay not given; read-out: Half Life (converted)

Row | SMILES | half-life
26 | C[C@H]1O[C@@H](O[C@H]2[C@@H](O)C[C@H](O[C@H]3[C@@H](O)C[C@H](O[C@H]4CC[C@@]5(C)[C@H](CC[C@@H]6[C@@H]5C[C@@H](OC(=O)OCOC(=O)CCCCC[N+](C)(C)C)[C@]5(C)[C@@H](C7=CC(=O)OC7)CC[C@]65O)C4)O[C@@H]3C)O[C@@H]2C)C[C@@H]2OC(=O)O[C@@H]21 [digoxin 12-(6-trimethylaminohexanoyloxymethyl carbonate)-3"',4"'-cyclic carbonate, bromide salt] | 168 min
27 | CC1OC(OC2C(C)OC(OC3C(C)OC(OC4CCC5(C)C(CCC6C5CC(O)C5(C)C(C7=CC(=O)OC7)CCC65O)C4)CC3OC(=O)OCOC(=O)CCCCC[N+](C)(C)C)CC2OC(=O)OCOC(=O)CCCCC[N+](C)(C)C)CC2OC(=O)OC12 (stereo not drawn) [digoxin-3',3"-bis-(6-trimethylaminohexanoyloxymethyl carbonate)-3'",4'"-cyclic carbonate, bromide salt] | 600 min
